pEC50: −log10 of the molar value.
Tests used:
5-LOX = molecular target: T1, 5-LOX (Homo sapiens, UniProt P09917); test: Sandwich ELISA of Labelox B biotinylation in A549 cell lysate, 5-LOX capture; assay type: biochemical; settings: HRP-streptavidin detection, read-out: EC50 of labeling
T1 construct: the endogenous LOXs were captured on an anti‐LOX antibody precoated 96‐well plate; endogenous in cells; host or cells: A549 cell lysate
T1 sequence (P09917 1-674): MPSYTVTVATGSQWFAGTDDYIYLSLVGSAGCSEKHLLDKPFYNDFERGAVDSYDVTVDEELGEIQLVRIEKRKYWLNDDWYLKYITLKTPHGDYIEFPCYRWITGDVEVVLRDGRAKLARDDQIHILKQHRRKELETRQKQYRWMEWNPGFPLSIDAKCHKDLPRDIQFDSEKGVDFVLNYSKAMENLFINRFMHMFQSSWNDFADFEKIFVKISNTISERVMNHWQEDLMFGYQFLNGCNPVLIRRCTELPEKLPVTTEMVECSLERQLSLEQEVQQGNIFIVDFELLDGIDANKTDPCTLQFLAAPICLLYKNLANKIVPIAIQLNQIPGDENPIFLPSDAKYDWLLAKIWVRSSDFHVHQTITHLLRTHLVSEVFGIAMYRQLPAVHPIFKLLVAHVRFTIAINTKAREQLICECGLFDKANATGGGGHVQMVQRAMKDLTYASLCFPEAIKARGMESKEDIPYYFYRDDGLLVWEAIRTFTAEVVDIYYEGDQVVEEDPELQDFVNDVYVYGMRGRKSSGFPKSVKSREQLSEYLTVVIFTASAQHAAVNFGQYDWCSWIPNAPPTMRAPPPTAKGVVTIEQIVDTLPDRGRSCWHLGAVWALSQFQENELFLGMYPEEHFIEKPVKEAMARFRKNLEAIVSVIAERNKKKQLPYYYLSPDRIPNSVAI
Method: (§1) Labelox B efficiently labels endogenous LOXs. Lipoxygenase labeling by Labelox B was investigated using cell‐based assays. As a first step, labeling efficiency was estimated in intact RAW 264.7 macrophage cells that were treated with Labelox B in concentrations ranging between 1 μM and 100 μM with incubation times between 0.5 h and 6 h. […] As a next step, a sandwich ELISA assay was established in order to find proof that probe Labelox B is indeed labeling proteins with lipoxygenase enzyme activity. Towards this aim, A549 cell lysates were treated with sub‐micromolar to micromolar concentrations of Labelox B. Subsequently, the endogenous LOXs were captured on an anti‐LOX antibody precoated 96‐well plate followed by detection of Labelox B mediated biotinylation using HRP‐conjugated streptavidin. […] Furthermore, probe Labelox B enabled visualization of localized LOX activity in living cells (Figure 2 c). […] The fluorescence intensity increased with increasing doses of Labelox B and labeling was observed throughout the cells in the cytoplasm and the nucleus of A549.
(§2) Figure 2 Labelox B labels endogenous LOXs in a dose‐ and time‐dependent manner. a, b) Western blot analysis of Labelox B labeled LOXs in intact RAW 264.7 for indicated doses and time points. […] The pictures were captured by a Leica DM4000b fluorescence microscope.

15-LOX-2 = molecular target: T2, 15-LOX-2 (Homo sapiens, UniProt O15296); test: Sandwich ELISA of Labelox B biotinylation in A549 cell lysate, 15-LOX-2 capture; assay type: biochemical; settings: HRP-streptavidin detection, read-out: EC50 of labeling
T2 construct: endogenous in cells; host or cells: A549 cell lysate
T2 sequence (O15296 1-676): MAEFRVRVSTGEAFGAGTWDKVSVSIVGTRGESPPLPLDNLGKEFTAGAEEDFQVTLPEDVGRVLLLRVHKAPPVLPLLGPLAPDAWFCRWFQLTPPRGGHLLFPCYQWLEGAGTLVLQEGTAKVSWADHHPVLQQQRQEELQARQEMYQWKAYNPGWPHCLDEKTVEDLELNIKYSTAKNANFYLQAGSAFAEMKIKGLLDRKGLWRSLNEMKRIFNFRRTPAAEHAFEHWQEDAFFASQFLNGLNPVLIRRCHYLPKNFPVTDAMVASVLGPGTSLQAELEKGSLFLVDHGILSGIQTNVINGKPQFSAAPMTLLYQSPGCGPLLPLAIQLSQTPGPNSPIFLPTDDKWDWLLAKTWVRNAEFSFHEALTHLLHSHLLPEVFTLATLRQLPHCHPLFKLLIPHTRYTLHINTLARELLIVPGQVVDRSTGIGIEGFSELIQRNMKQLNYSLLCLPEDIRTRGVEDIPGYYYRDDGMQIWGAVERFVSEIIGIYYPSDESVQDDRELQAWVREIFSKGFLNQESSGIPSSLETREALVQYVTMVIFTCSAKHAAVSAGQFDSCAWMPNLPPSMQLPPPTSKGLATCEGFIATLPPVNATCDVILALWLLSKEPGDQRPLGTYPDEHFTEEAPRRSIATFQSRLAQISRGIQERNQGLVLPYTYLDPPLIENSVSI
Method: as §1, §2

[1] = system: endogenous LOXs in intact RAW 264.7 macrophage cells; test: Western blot of Labelox B labeling in intact RAW 264.7 macrophage cells; assay type: cell-based
From the text: described in the IC50 determination assay. Michaelis-Menten plots, Lineweaver-Burk plots, Km, and Vmax, are generated using GraphPad Prism 8.3.0.
1.5. Kits-Wilson kinetic analysis […]
enzyme to get a reversible complex, E*I. The dissociation constant of inhibitor (Ki) is from the formation […]
E-I. The inactivation rate constant (ki) is to describe the rate of E-I generation. To determine these inactivation parameters, Kitz-Wilson analysis was employed. The procedure has been detailed previously […]
1.6. Immunoblotting Analysis
Raw 264.7 cells were seeded in a 6-well plate at a density of 5x10^5 cells per well in high glucose DMEM media supplemented with 1% penicillin/streptomycin, 10% fetal bovine serum (FBS) (Costar Europe, Badhoevedrop, The Netherlands) at 37°C and cultured overnight. Afterward, cells were treated with the desired concentration of Labelox B at the expected time. Then, the cells were harvested and lysed with RIPA buffer containing 1X PIC. […]
Later, 30 μl of each sample was used for immunoblotting analysis. […] After washing, the blotting bands were detected with enhanced chemiluminescence (ECL) solution (GE Healthcare, Amersham, UK). […]
A549 cells were lysed by RIPA buffer supplemented with 1x PIC. After sonication and centrifugation, the supernatant was collected, and the protein concentration was determined by a Pierce BCA Protein Assay Kit (Thermo Fisher Scientific, USA). […]

CCCCCC#CCC#CCOC(=O)CCCC[C@@H]1SC[C@@H]2NC(=O)N[C@@H]21 [Labelox B (3)]
pEC50 (5-LOX): ~5.46
pEC50 (15-LOX-2): ~5.46
Labeling of proteins with the size of endogenous LOXs ([1]; 1 μM to 100 μM, 0.5 h to 6 h): dose and time‐dependent manner
Cell permeability ([1]; labels effectively in half an hour at 25 μM): sufficiently cell‐permeable

Reference: paper PMC8518382, “Identification of a Bromodomain‐like Region in 15‐Lipoxygenase‐1 Explains Its Nuclear Localization” (Angewandte Chemie (International Ed. in English), 2021)
